According to US12528802B2, “Heterocyclic compound” (Takeda Pharmaceutical Company Limited, priority 2019, dated 2026):

These molecules were tested against T1, glucosylceramide synthase (Homo sapiens, UniProt Q16739) (assay: Glucosylceramide synthase (GCS) enzyme assay, microsome fraction, C8 glucosylceramide quantified by Rapidfire MS/MS). Settings: test compound 10 μM; 1.7 μM UDP-glucose, 3 μM C8 ceramide; room temperature 60 min; read-out: GCS enzyme inhibitory rate at 10 μM (%) (% of control).
T1 construct: made in house; host or cells: Expi293F cells (transient expression, pcDNA3.3-TOPO vector); microsome fraction used as enzyme source
T1 sequence (Q16739 1-394): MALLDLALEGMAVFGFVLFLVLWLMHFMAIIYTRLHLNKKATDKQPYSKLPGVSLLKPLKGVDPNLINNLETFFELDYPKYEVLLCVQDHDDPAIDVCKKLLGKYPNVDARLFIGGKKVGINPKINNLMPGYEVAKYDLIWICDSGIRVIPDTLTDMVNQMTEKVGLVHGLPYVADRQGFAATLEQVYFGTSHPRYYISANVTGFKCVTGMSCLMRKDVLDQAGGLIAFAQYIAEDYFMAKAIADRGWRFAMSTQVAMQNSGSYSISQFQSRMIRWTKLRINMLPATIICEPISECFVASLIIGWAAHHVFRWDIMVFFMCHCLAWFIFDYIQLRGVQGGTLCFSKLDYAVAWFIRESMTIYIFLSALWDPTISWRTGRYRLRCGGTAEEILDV
Format: biochemical
Procedure, shortened: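 Test compound, 10 μM final, was run against human GCS from transfected Expi293F microsome fractions, using substrate solution of 6 μM C8 ceramide (in DOPC liposomes) plus 3.4 μM UDP-glucose, pH 7.5 Tris buffer, 60 min, room temperature. Product C8 glucosylceramide measured by Rapidfire MS/MS against an internal standard, % inhibition referenced to no-enzyme and DMSO wells.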

SMILES	inhibition at 10 µM [%]
COc1ccccc1-c1nccc2c1CN(c1ccc(C(F)(F)F)cn1)C2=O [Example 32, 4-(2-methoxyphenyl)-2-[5-(trifluoromethyl)pyridin-2-yl]-2,3-dihydro-1H-pyrrolo[3,4-c]pyridin-1-one]	93
COc1cnc(C)cc1-c1nccc2c1CN(c1ccc(F)cc1)C2=O [Example 33, 2-(4-fluorophenyl)-4-(5-methoxy-2-methylpyridin-4-yl)-2,3-dihydro-1H-pyrrolo[3,4-c]pyridin-1-one]	68
COC(=O)c1ccc(-c2nccc3c2CN(c2ccc(F)cc2)C3=O)c(OC(F)F)c1 [Example 34, methyl 3-(difluoromethoxy)-4-[2-(4-fluorophenyl)-1-oxo-2,3-dihydro-1H-pyrrolo[3,4-c]pyridin-4-yl]benzoate]	83
COc1ccccc1-c1nccc2c1CN(c1ccc(OC(F)F)cn1)C2=O [Example 39, 2-[5-(difluoromethoxy)pyridin-2-yl]-4-(2-methoxyphenyl)-2,3-dihydro-1H-pyrrolo[3,4-c]pyridin-1-one]	93
NC(=O)c1ccc(-c2nccc3c2CN(c2ccc(F)cc2)C3=O)c(OC(F)F)c1 [Example 40, 3-(difluoromethoxy)-4-[2-(4-fluorophenyl)-1-oxo-2,3-dihydro-1H-pyrrolo[3,4-c]pyridin-4-yl]benzamide]	54
O=C1c2ccnc(-c3ccccc3OCC(F)(F)F)c2CN1c1ccc(F)cc1 [Example 42, 2-(4-fluorophenyl)-4-[2-(2,2,2-trifluoroethoxy)phenyl]-2,3-dihydro-1H-pyrrolo[3,4-c]pyridin-1-one]	94
COc1ccccc1-c1nccc2c1CN(c1ccc(F)cn1)C2=O [Example 43, 2-(5-fluoropyridin-2-yl)-4-(2-methoxyphenyl)-2,3-dihydro-1H-pyrrolo[3,4-c]pyridin-1-one]	95
Cn1ccc(N2Cc3c(ccnc3-c3ccc(F)cc3OCC(F)(F)F)C2=O)n1 [Example 45, 4-[4-fluoro-2-(2,2,2-trifluoroethoxy)phenyl]-2-(1-methyl-1H-pyrazol-3-yl)-2,3-dihydro-1H-pyrrolo[3,4-c]pyridin-1-one]	89
CCOC(=O)c1ccc(-c2nccc3c2CN(c2ccc(F)cc2)C3=O)c(OC)c1 [Example 48, ethyl 4-[2-(4-fluorophenyl)-1-oxo-2,3-dihydro-1H-pyrrolo[3,4-c]pyridin-4-yl]-3-methoxybenzoate]	70
COc1ccccc1-c1nccc2c1CN(c1ccc(OCC(F)(F)F)cc1)C2=O [Example 50, 4-(2-methoxyphenyl)-2-[4-(2,2,2-trifluoroethoxy)phenyl]-2,3-dihydro-1H-pyrrolo[3,4-c]pyridin-1-one]	99
O=C1c2ccnc(-c3ccccc3OCC(F)(F)F)c2CN1c1ccc(F)cn1 [Example 51, 2-(5-fluoropyridin-2-yl)-4-[2-(2,2,2-trifluoroethoxy)phenyl]-2,3-dihydro-1H-pyrrolo[3,4-c]pyridin-1-one]	99
O=C1c2ccnc(-c3ccc(F)cc3OC(F)F)c2CN1c1ccc(F)cn1 [Example 52, 4-[2-(difluoromethoxy)-4-fluorophenyl]-2-(5-fluoropyridin-2-yl)-2,3-dihydro-1H-pyrrolo[3,4-c]pyridin-1-one]	67
O=C1c2ccnc(-c3ccc(F)cc3OC(F)F)c2CN1c1ccc(OC(F)F)cn1 [Example 53, 4-[2-(difluoromethoxy)-4-fluorophenyl]-2-[5-(difluoromethoxy)pyridin-2-yl]-2,3-dihydro-1H-pyrrolo[3,4-c]pyridin-1-one]	67
O=C1c2ccnc(-c3ccccc3OCC(F)(F)F)c2CN1c1ccc(OC(F)F)cn1 [Example 54, 2-[5-(difluoromethoxy)pyridin-2-yl]-4-[2-(2,2,2-trifluoroethoxy)phenyl]-2,3-dihydro-1H-pyrrolo[3,4-c]pyridin-1-one]	100
O=C1c2ccnc(-c3ccc(F)cc3OCC(F)(F)F)c2CN1c1ccc(OC(F)F)cn1 [Example 55, 2-[5-(difluoromethoxy)pyridin-2-yl]-4-[4-fluoro-2-(2,2,2-trifluoroethoxy)phenyl]-2,3-dihydro-1H-pyrrolo[3,4-c]pyridin-1-one]	98
O=C1c2ccnc(-c3ccccc3OCC(F)(F)F)c2CN1c1ccc(OC(F)(F)F)cn1 [Example 56, 4-[2-(2,2,2-trifluoroethoxy)phenyl]-2-[5-(trifluoromethoxy)pyridin-2-yl]-2,3-dihydro-1H-pyrrolo[3,4-c]pyridin-1-one]	100
O=C1c2ccnc(-c3ccc(F)cc3OC(F)F)c2CN1c1ccc(OC(F)(F)F)cn1 [Example 57, 4-[2-(difluoromethoxy)-4-fluorophenyl]-2-[5-(trifluoromethoxy)pyridin-2-yl]-2,3-dihydro-1H-pyrrolo[3,4-c]pyridin-1-one]	74
O=C1c2ccnc(-c3ccc(F)cc3OCC(F)(F)F)c2CN1c1ccc(OC(F)(F)F)cn1 [Example 58, 4-[4-fluoro-2-(2,2,2-trifluoroethoxy)phenyl]-2-[5-(trifluoromethoxy)pyridin-2-yl]-2,3-dihydro-1H-pyrrolo[3,4-c]pyridin-1-one]	96
O=C1c2ccnc(-c3ccc(F)cc3OCC(F)(F)F)c2CN1c1ccc(F)cn1 [Example 59, 2-(5-fluoropyridin-2-yl)-4-[4-fluoro-2-(2,2,2-trifluoroethoxy)phenyl]-2,3-dihydro-1H-pyrrolo[3,4-c]pyridin-1-one]	88
O=C1c2ccnc(-c3ccccc3OCC(F)(F)F)c2CN1c1ccc(C(F)(F)F)cn1 [Example 60, 4-[2-(2,2,2-trifluoroethoxy)phenyl]-2-[5-(trifluoromethyl)pyridin-2-yl]-2,3-dihydro-1H-pyrrolo[3,4-c]pyridin-1-one]	99
O=C1c2ccnc(-c3ccc(F)cc3OCC(F)(F)F)c2CN1c1ccc(C(F)(F)F)cn1 [Example 61, 4-[4-fluoro-2-(2,2,2-trifluoroethoxy)phenyl]-2-[5-(trifluoromethyl)pyridin-2-yl]-2,3-dihydro-1H-pyrrolo[3,4-c]pyridin-1-one]	85
O=C1c2ccnc(-c3ccccc3OC(F)F)c2CN1c1ccc(OC(F)(F)F)cn1 [Example 62, 4-[2-(difluoromethoxy)phenyl]-2-[5-(trifluoromethoxy)pyridin-2-yl]-2,3-dihydro-1H-pyrrolo[3,4-c]pyridin-1-one]	95
O=C1c2ccnc(-c3ccccc3OC(F)F)c2CN1c1ccc(F)cn1 [Example 63, 4-[2-(difluoromethoxy)phenyl]-2-(5-fluoropyridin-2-yl)-2,3-dihydro-1H-pyrrolo[3,4-c]pyridin-1-one]	96
O=C1c2ccnc(-c3ccccc3OC(F)F)c2CN1c1ccc(OC(F)F)cn1 [Example 64, 4-[2-(difluoromethoxy)phenyl]-2-[5-(difluoromethoxy)pyridin-2-yl]-2,3-dihydro-1H-pyrrolo[3,4-c]pyridin-1-one]	96
O=C1c2ccnc(-c3ccc(F)cc3OCC(F)(F)F)c2CN1c1ccc(OC(F)F)nc1 [Example 65, 2-[6-(difluoromethoxy)pyridin-3-yl]-4-[4-fluoro-2-(2,2,2-trifluoroethoxy)phenyl]-2,3-dihydro-1H-pyrrolo[3,4-c]pyridin-1-one]	95
